Measured values as given in publication PMC9443684 (RSC Advances, 2022).

Experiments:
MCF-7 cancer cell line = assay: MTT assay, anticancer activity against MCF-7; assay type: cell-based; details: Homo sapiens; for inhibition at 10 µM: MCF7, read-out: Cell growth inhibition (GI%); for IC50: MCF7, 48 h, read-out: Anticancer activity IC50
HepG2 cancer cell line = assay: MTT assay, anticancer activity against HepG2; assay type: cell-based; details: Homo sapiens; for inhibition at 10 µM: HepG2, read-out: Cell growth inhibition (GI%); for IC50: HepG2, 48 h, read-out: Anticancer activity IC50
HCT-116 cancer cell line = assay: MTT assay, anticancer activity against HCT-116; assay type: cell-based; details: Homo sapiens; for inhibition at 10 µM: HCT-116, read-out: Cell growth inhibition (GI%); for IC50: HCT-116, 48 h, read-out: Anticancer activity IC50
COX-1 = target: T1, COX-1 (Ovis aries, UniProt P05979); assay: In vitro cyclooxygenase; assay type: biochemical, ovine
T1 sequence (P05979 25-600): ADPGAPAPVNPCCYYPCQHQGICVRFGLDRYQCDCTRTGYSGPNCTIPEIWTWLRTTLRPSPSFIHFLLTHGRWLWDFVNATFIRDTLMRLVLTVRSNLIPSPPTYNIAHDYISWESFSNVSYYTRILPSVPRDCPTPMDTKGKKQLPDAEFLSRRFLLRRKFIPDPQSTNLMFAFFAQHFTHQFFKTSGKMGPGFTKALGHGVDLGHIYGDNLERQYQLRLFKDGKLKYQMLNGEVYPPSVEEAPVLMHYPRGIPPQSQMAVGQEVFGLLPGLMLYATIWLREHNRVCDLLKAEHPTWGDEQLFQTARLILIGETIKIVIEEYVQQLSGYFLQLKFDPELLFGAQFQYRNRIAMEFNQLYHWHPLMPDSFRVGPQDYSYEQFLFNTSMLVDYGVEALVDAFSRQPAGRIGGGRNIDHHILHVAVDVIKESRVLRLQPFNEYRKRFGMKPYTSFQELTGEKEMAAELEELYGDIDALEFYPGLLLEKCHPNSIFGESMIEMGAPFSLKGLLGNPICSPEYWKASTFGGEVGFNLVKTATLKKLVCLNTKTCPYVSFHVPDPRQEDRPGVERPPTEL

COX-2 = target: T2, COX-2 (Ovis aries, UniProt P79208); assay: In vitro cyclooxygenase; assay type: biochemical, ovine; details: for SI (selectivity index): IC50 (COX-1)/IC50 (COX-2)
T2 sequence (P79208 17-603): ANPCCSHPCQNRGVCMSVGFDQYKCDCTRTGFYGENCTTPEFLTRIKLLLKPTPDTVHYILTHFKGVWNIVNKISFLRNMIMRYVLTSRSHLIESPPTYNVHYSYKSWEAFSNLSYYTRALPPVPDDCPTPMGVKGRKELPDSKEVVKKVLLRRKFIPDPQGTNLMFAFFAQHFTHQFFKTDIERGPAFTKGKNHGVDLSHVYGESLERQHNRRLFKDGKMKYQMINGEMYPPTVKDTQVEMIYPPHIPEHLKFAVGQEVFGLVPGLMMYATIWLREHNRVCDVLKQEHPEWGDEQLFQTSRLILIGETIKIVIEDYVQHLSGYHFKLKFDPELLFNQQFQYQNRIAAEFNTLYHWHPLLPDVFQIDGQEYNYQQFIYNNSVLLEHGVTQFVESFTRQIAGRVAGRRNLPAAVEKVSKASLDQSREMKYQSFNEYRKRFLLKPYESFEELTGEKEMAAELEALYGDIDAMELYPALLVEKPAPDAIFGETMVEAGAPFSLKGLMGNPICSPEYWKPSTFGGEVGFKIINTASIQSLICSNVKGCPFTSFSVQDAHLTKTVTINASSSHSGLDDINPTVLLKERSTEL

[1] = tested on: MCF-7, HepG2 and HCT-116 cancer cell lines; assay: MTT assay, statements over the three cancer cell lines together; assay type: cell-based; details: for IC50: read-out: Anticancer activity IC50 against the three cancer cell lines; for inhibition at 10 µM: read-out: Growth inhibition against the three cancer cell lines
EGFR = EGFR (Homo sapiens, UniProt P00533); assay: In vitro EGFR-TK inhibition assay; assay type: biochemical
Sequence of EGFR (P00533 25-1210): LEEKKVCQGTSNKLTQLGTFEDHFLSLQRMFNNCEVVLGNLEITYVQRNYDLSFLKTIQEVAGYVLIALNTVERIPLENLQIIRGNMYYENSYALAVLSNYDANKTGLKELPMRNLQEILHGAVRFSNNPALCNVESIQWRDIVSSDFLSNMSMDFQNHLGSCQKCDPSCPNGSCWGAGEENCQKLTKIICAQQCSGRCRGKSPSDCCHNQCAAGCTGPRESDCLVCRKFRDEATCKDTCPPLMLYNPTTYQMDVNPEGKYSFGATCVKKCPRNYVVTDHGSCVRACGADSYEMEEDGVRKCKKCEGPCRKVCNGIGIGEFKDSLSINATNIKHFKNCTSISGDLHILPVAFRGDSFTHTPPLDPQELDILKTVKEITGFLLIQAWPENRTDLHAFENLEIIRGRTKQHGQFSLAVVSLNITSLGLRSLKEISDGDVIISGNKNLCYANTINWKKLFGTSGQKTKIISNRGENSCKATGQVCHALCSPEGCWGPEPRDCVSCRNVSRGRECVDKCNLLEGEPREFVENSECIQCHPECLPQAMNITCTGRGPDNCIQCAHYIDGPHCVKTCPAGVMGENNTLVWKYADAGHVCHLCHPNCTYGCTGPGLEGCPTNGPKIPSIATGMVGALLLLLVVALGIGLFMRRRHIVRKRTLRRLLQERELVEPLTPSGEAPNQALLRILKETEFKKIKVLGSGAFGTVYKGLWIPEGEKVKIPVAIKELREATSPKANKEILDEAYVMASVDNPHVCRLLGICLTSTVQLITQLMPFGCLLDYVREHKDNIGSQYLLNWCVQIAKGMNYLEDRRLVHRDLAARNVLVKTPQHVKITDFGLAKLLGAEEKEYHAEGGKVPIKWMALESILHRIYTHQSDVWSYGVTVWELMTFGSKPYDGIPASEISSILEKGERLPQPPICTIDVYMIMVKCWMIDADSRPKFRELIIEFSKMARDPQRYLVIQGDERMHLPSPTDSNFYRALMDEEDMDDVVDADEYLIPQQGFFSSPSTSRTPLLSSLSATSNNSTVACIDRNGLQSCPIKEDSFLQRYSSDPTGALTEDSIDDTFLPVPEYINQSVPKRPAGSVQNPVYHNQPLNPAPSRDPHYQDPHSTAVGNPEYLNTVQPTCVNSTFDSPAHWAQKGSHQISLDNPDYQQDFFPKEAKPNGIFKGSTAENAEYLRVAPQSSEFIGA

SMILES | inhibition at 10 µM (MCF-7 cancer cell line) [%] | inhibition at 10 µM (HepG2 cancer cell line) [%] | inhibition at 10 µM (HCT-116 cancer cell line) [%] | IC50 (MCF-7 cancer cell line) [µM] | IC50 (HepG2 cancer cell line) [µM] | IC50 (HCT-116 cancer cell line) [µM] | IC50 (COX-1) [µM] | IC50 (COX-2) [µM] | SI (selectivity index) (COX-2) | IC50 [1] [µM] | inhibition at 10 µM [1] [%] | IC50 (EGFR) [µM]
Cn1c(=O)c(C(=O)NN=Cc2ccccc2)nc2ccccc21 [Compound 2a, N′-benzylidene-4-methyl-3-oxo-3,4-dihydroquinoxaline-2-carbohydrazide] | 82.85 ± 0.49 | 89.21 ± 0.63 | 69.25 ± 0.45 |  |  |  |  |  |  |  |  | 
Cn1c(=O)c(C(=O)N/N=C/c2ccc(Cl)cc2)nc2ccccc21 [Compound 2b, (E)-N′-(4-chlorobenzylidene)-4-methyl-3-oxo-3,4-dihydroquinoxaline-2-carbohydrazide] | 95.5 ± 1.25 | 90.76 ± 0.29 | 88.68 ± 0.52 | 15.98 ± 0.06 | 12.41 ± 0.05 | 16.3 ± 0.24 | 4.42 ± 1.67 | 5.26 ± 0.49 | 0.84 | > 10 |  | 
Cn1c(=O)c(C(=O)NN=Cc2ccc(O)cc2)nc2ccccc21 [Compound 2c, N′-(4-hydroxybenzylidene)-4-methyl-3-oxo-3,4-dihydroquinoxaline-2-carbohydrazide] | 69.72 ± 0.46 | 77.95 ± 0.56 | 61.92 ± 0.55 |  |  |  |  |  |  |  | ≥ 88.7 | 
Cn1c(=O)c(C(=O)N/N=C/c2ccc3c(c2)OCO3)nc2ccccc21 [Compound 2d, (E)-N′-(benzo[d][1,3]dioxol-5-ylmethylene)-4-methyl-3-oxo-3,4-dihydroquinoxaline-2-carbohydrazide] | 50.14 ± 0.46 | 56.95 ± 0.35 | 59.5 ± 0.78 |  |  |  |  |  |  |  |  | 
Cn1c(=O)c(C(=O)N/N=C2\C(=O)Nc3ccccc32)nc2ccccc21 [Compound 4a, (Z)-4-Methyl-3-oxo-N′-(2-oxoindolin-3-ylidene)-3,4-dihydroquinoxaline-2-carbohydrazide] | 90.14 ± 0.76 | 91.82 ± 0.35 | 92.79 ± 0.15 | 4.42 ± 0.12 | 4.23 ± 0.09 | 4.54 ± 0.19 | 28.8 ± 1.02 | 1.17 ± 0.15 | 24.61 | 3.21 to 4.54 | ≥ 88.7 | 0.3 ± 0.01
CN1C(=O)/C(=N\NC(=O)c2nc3ccccc3n(C)c2=O)c2ccccc21 [Compound 4b, (Z)-4-Methyl-N′-(1-methyl-2-oxoindolin-3-ylidene)-3-oxo-3,4-dihydroquinoxaline-2-carbohydrazide] | 61.47 ± 0.37 | 52.4 ± 0.74 | 59.46 ± 0.27 |  |  |  |  |  |  |  |  | 
C/C(=N\NC(=O)c1nc2ccccc2n(C)c1=O)c1cc2ccccc2oc1=O [Compound 5, (E)-4-Methyl-3-oxo-N′-(1-(2-oxo-2H-chromen-3-yl)ethylidene)-3,4-dihydroquinoxaline-2-carbohydrazide] | 91.47 ± 0.25 | 90.79 ± 0.21 | 93.75 ± 0.29 | 3.21 ± 0.1 | 3.62 ± 0.21 | 3.46 ± 0.15 | 40.3 ± 3.35 | 0.83 ± 0.4 | 48.58 | 3.21 to 4.54 | ≥ 88.7 | 0.9 ± 0.01
Cn1c(=O)c(C(=O)N/N=C/C(O)C(O)C(O)CO)nc2ccccc21 (stereo not drawn) [Compound 6, (E)-4-Methyl-3-oxo-N′-(2,3,4,5-tetrahydroxypentylidene)-3,4-dihydroquinoxaline-2-carbohydrazide] | 10.8 ± 0.76 | 21.4 ± 0.52 | 41.8 ± 1.27 |  |  |  |  |  |  |  |  | 
Cn1c(=O)c(C(=O)N/N=C/C(O)C(O)C(O)C(O)CO)nc2ccccc21 (stereo not drawn) [Compound 7, (E)-4-Methyl-3-oxo-N′-(2,3,4,5,6-pentahydroxyhexylidene)-3,4-dihydroquinoxaline-2-carbohydrazide] | 10.3 ± 0.48 | 26.4 ± 0.83 | 33.9 ± 1.27 |  |  |  |  |  |  |  |  | 
CC(=O)C/C(=N/NC(=O)c1nc2ccccc2n(C)c1=O)c1ccccc1 [Compound 9, (Z)-4-methyl-3-oxo-N′-(3-oxo-1-phenylbutylidene)-3,4-dihydroquinoxaline-2-carbohydrazide] | 92.97 ± 0.54 | 96.83 ± 0.29 | 97.89 ± 0.69 | 6.84 ± 0.07 | 5.54 ± 0.27 | 8.75 ± 0.25 | 38.7 ± 1.27 | 2.21 ± 0.14 | 17.52 |  | ≥ 88.7 | 
CN1c2ccccc2N=C(C(=O)NN)C1N=N (stereo not drawn) [Compound 10, 3-Diazenyl-4-methyl-3,4-dihydroquinoxaline-2-carbohydrazide] | 49.8 ± 0.86 | 52.4 ± 0.69 | 86.6 ± 1.31 |  |  |  |  |  |  |  |  | 
Cn1c(=O)c(C(=O)NNC(=O)CC(=O)c2ccccc2)nc2ccccc21 [Compound 11, 4-Methyl-3-oxo-N′-(3-oxo-3-phenylpropanoyl)-3,4-dihydroquinoxaline-2-carbohydrazide] | 92.57 ± 0.43 | 92.78 ± 0.38 | 97.63 ± 0.16 | 2.91 ± 0.23 | 2.41 ± 0.07 | 2.38 ± 0.26 | 38 ± 0.66 | 0.62 ± 0.07 | 61.23 | 0.81 to 2.91 | ≥ 88.7 | 0.6 ± 0.04
Cc1cc(C)n(C(=O)c2nc3ccccc3n(C)c2=O)n1 [Compound 12, 3-(3,5-Dimethyl-1H-pyrazole-1-carbonyl)-1-methylquinoxalin-2(1H)-one] | 33.5 ± 0.82 | 53.8 ± 1.38 | 49.2 ± 1.23 |  |  |  |  |  |  |  |  | 
Cn1c(=O)c(C(=O)NNC(=S)Nc2ccccc2)nc2ccccc21 [Compound 13, 2-(4-Methyl-3-oxo-3,4-dihydroquinoxaline-2-carbonyl)-N-phenylhydrazine-carbothioamide] | 95.39 ± 0.27 | 96.75 ± 0.29 | 97.87 ± 0.19 | 0.81 ± 0.13 | 0.96 ± 0.09 | 1.12 ± 0.19 | 30.4 ± 1.63 | 0.46 ± 0.06 | 66.11 | 0.81 to 2.91 | ≥ 88.7 | 0.4 ± 0.02
Cn1c(=O)c(-c2nnco2)nc2ccccc21 [Compound 14, 1-Methyl-3-(1,3,4-oxadiazol-2-yl)quinoxalin-2(1H)-one] | 29.3 ± 0.63 | 25.7 ± 1.67 | 33.3 ± 1.32 |  |  |  |  |  |  |  |  | 
Cn1c(=O)c(-c2n[nH]c(=S)o2)nc2ccccc21 [Compound 15, 1-Methyl-3-(5-thioxo-4,5-dihydro-1,3,4-oxadiazol-2-yl)quinoxalin-2(1H)-one] | 43.5 ± 0.63 | 59.5 ± 1.92 | 76.3 ± 1.22 |  |  |  |  |  |  |  |  | 
COc1cccc2c1C(=O)c1c(O)c3c(c(O)c1C2=O)C[C@@](O)(C(=O)CO)C[C@@H]3O[C@H]1C[C@H](N)[C@H](O)[C@H](C)O1 [Doxorubicin, doxorubicin, reference compound] |  |  |  | 0.9 ± 0.02 | 1.21 ± 0.08 | 0.51 ± 0.03 |  |  |  |  |  | 
